Measured values: patent US7125568B2, “Lipophilic drug compositions” (priority 2001, dated 2006)
Where two headings read alike, the source gives them in different places.

How the values were obtained:
[1] = Degradation of aspirin in sodium carbonate, monitored by UV spectrophotometry; format: physicochemical; settings: 0.1 M NaCO3 (10 pH), at 27 hours
Description: In this example, aspirin is encapsulated in Sterotex® using the method described in Example 1. In aspirin, the deacetylated species is salicylic acid, which has a characteristic absorbency at 296 nm. The comparison of drug stability of Sterotex®/aspirin vs. aspirin was made in 0.1 M NaCO3 (10 pH) and the kinetics of degradation monitored by UV spectrophotometry. In FIG. 1, the appearance of salicylic acid is compared between aspirin encapsulated in Sterotex® and free aspirin. Aspirin slowly dissolves and is hydrolyzed to salicylic acid in a basic solution of 0.1 M NaCO3. At 27 hours, it is roughly 38% hydrolyzed. By contrast, aspirin encapsulated in Sterotex® is quite stable even at 27 hours and is only less than 2% degraded. This example illustrates the increase in drug stability provided by encapsulation in a lipid component.

[2] = tested on: HCMV; test: Plaque reduction assay, HCMV in human embryonic fibroblast cells; format: cell-based, Human Cytomalovirus
Description: (§1) The drugs, NTZ and BA 3540, were made soluble at 10 mg/mL in dimethylsulfoxide and then diluted in media to 50 μg/mL, 5 μg/mL, 2.5 μg/mL, and 1.5 μg/mL. Human embryonic fibroblast cells were propagated in minimal essential media and supplemented with 10% fetal bovine serum. Cells were pre-treated with the two drugs at the 4 specified concentrations plus a zero control for 45 minutes. The plates were each infected with 300–400 viral particles of either HSV or HCMV for 1 hour. Drug free media was added to each plate and incubation continued for 3 days to propagate virus. At the end of three days, the supernatant from each of the plates was removed for plaque reduction assays.

[3] = Solubility and stability in water; format: physicochemical
Description: (§2) Acetylbenzamide nitrothiazole, otherwise known as NTZ, is an antibiotic drug useful as a treatment for protozoan parasites. […] Acetylbenzamide nitrothiazole encapsulated by Sterotex® as described in Example 1 is hydrophobic and remains afloat on the water surface.

[4] = Degradation of acetylbenzamide nitrothiazole in 0.1 M NaCO3 (optical density); format: physicochemical; settings: 0.1 M NaCO3, at 3 hours
Description: as §2
The kinetic of degradation of acetylbenzamnide nitrothiazole in 0.1 M NaCO3 is similar to the aspirin curve of FIG. 1. […] 1, while the free drug has an optical density of 1.9. This example also illustrates the stabilizing effect of lipid encapsulation.

[5] = free form; cited from earlier work
[6] = cited from earlier work
[7] = Solubility and heat stability of the bulk drug; format: physicochemical
Description: In a typical example, an equimolar ratio (approximately 2.5 moles) of lauric acid is activated with dicyclohexyl-carbodiimide (DCC) in 500 mL of dimethylformamide. After 90 minutes, the insoluble dicyclohexylurea formed is removed by vacuum filtration. The activated lauric acid solution is then added in approximately 1:1 ratio of the nucleophile 2-amino-5 nitro-thiazole in 600 mL of methylene chloride, 60 ml of pyridine and made up to 3.5 liters with dimethylformamide. The reaction is allowed to proceed for 40–48 hours with shaking, stirring or heating at 50° C. The product formed is obtained and purified by precipitation and recrystallization in methanol and or acetone. This synthesis scheme is depicted as 2-lauramide-5-nitrothioazole and is a nice needle shaped microcrystal. […] To promote complete dissolution, the drug has to be lightly heated.

[8] = tested on: coccidia; test: Treatment of coccidiosis in chickens (fecal float oocyst levels)
Description: An initial trial involving 120 broilers (4 week old chickens) for the treatment of coccidiosis was made. Three treatment groups were used: (1) control, (2) low dose of 10 mg BA 3540/kg treatment, and (3) high dose at 50 mg BA 3540/kg treatment. The broilers were separated into six pens, […]. Fecal collection was begun to check for the presence of coccidian. The treatments were then assigned and the trial started. The treatment was added to a mash diet and fed adlib for seven days. At the end of the treatment period, new fecal collections for each treatment group were analyzed for the presence of coccidia.
Two fecal samples were taken from each pen and a fecal float was done to check oocyst levels. Oocyst levels are considered to determine the adult coccidian present in an intestinal tract.
A confirmatory trial was conducted with 10 seven-week-old Arbor Acres broilers. The birds were divided into two groups: control and 50 mg/kg treatment groups. The two set of cages were off the floor to prevent any potential contamination. The trial was monitored for four days and fecal floats for oocyte population were used to determine efficacy. Two fecal samples were collected from each cage.

[9] = tested on: fungal growth; test: Topical treatment of yellow fungal toes; format: in vivo, patients; settings: 3% weight percent gel, 5 consecutive days then weekly for 4 weeks, after two weeks
Description: In the present study, patients suffering from yellow fungal toes were treated with a 3% weight percent BA3540 in a gel formulation (gel comprises propylene glycol and 0.8% Carbopol® Gel) for 5 consecutive days by topical application of the gel formulation on the surrounding nail cuticle area, followed by weekly treatment with the gel formulation for the next 4 weeks. The thickening of the nail caused by fungal growth disappeared after two weeks, and several months later a healthy nail began to appear behind the thick nail.

[10] = tested on: HSV; test: Plaque reduction assay, HSV in human embryonic fibroblast cells; format: cell-based, Herpes simplex virus
Description: as §1

[11] = tested on: Sarcocystis neurona
Description: The new drug was encapsulated as in Example 4 with 27% palmitic acid and 73% of Sterotex®.
Case 1: “Chris” is a 7 year old quarter horse gelding. […] Chris was given daily oral treatment of the new paste formulation containing lipid encapsulated 2-lauramide-5-nitrothiazole for a total of 28 dosings with 25 gm/syringe. (On day 22 to 28, the drug was not given and then resumed medication in the following week).
Case 2: “Brooke” is an 18-year-old thoroughbred mare. […] Again the horse was given daily oral treatments with the current dose of a typical 1000 lb horse at about 50 mg/Kg body weigh or 25 gm/day.
Case 3: “Foundation Man” is a 22-year-old Appaloosa gelding. […] Foundation Man was given daily oral treatments with the same amount of medication for 28 days.

## CC(=O)Oc1ccccc1C(=O)O [aspirin]
[1]
  hydrolyzed to salicylic acid (degraded): roughly 38%

## CC(=O)Oc1ccccc1C(=O)Nc1ncc([N+](=O)[O-])s1 [NTZ, Nitazoxanide]
[2]; all four drug concentrations (1.5, 2.5, 5, 50 μg/mL), control 310 plaques
  plaques: no viral plaques
[3]; standing in water, room temperature
  stability in water: converted to the deacetylated counterpart
[3]; water
  solubility in water: sparingly soluble
[4]
  optical density: 1.9
[5]
  adverse effects in horses: causes anorexia, depression and diathermia or loose stool
[6]
  expiry of bulk drug: two

## CCCCCCCCCCCC(=O)Nc1ncc([N+](=O)[O-])s1 [BA 3540, 2-lauramide-5-nitrothiazole]
[7]; bulk drug
  solubility in methanol: sparingly soluble
  solubility in methylene chloride and dimethylforamide: more soluble
  solubility in water: insoluble
[7]; methanol, acetone, methylene chloride, dimethylforamide at 60–80° C.
  stability on heating in organic solvents: no appreciable detriment
[8]; broilers, 10 and 50 mg/kg in diet
  mortality: no mortality
[8]; confirmatory trial, 50 mg/kg, four days, seven-week-old broilers
  oocytes in fecal samples: no visible oocytes
[8]; high dose group 50 mg/kg in mash diet, initial trial
  samples with detectable oocyst: 1 of 4
[8]; low treatment group 10 mg/kg in mash diet, initial trial
  amount of oocyst: about the same as the control group
[9]
  thickening of the nail caused by fungal growth: disappeared
[2]
  projected therapeutic range: 1.5 to 2.5 µg/mL
[2]; 1.5 μg/mL, controls 300 plaques
  plaques: 3
[2]; 2.5 μg/mL, controls 300 plaques
  plaques: 1
[2]; higher drug concentrations (5 and 50 μg/mL)
  plaques: none
[10]
  therapeutic range: 5 to 10 µg/mL
[10]; 1.5 μg/mL, control 110 plaques
  plaques: 90
[11]; Case 1 Chris, from Grade 3, lipid encapsulated paste, oral daily, 28 dosings, 25 gm/syringe
  EPM grade after treatment: 0/1
[11]; Case 2 Brooke, started at Grade 2, day 29, about 50 mg/Kg or 25 gm/day oral
  EPM grade after treatment: 2 grade
[11]; Case 3 Foundation Man, from Grade 2/3, 28 day oral treatment
  EPM grade after treatment: 0 Grade
[11]; all three horses, owners' reports, day 84
  recovery from EPM: fully recovered
[11]; in vivo, po
  side effects: no side effects
